Results as given in patent US9993462B2, “Hydantoin derivative-containing pharmaceutical composition” (Chugai Seiyaku Kabushiki Kaisha, priority 2014, dated 2018).

Tested on: normal rats
Experiment: Bone mineral density after four weeks of repeated intravenous administration to normal rats
Format: in vivo, rat
Details: intravenous once a day for four weeks
Procedure: Female RccHan: WIST rats obtained from Japan Laboratory Animals Inc. were acclimated for one week or longer under standard laboratory conditions of 20° C. to 26° C. and 30% to 70% humidity, and then used in experiments. The rats had free access to tap water and a standard rodent diet (CR-LPF) (Oriental Yeast Co., Ltd.).
Intravenous catheter was placed into eight-week old rats. The catheter was inserted from the femoral vein in the inguinal region, and the tip was extended into the caudal vena cava for placement at that site. The body weight was determined in the first week post-surgery, and the rats were divided into groups of ten animals per group so that the average body weight of each group would be even. Two days after group division, all rats were intravenously administered once a day repeatedly for four weeks. Administration was carried out by connecting an infusion pump (MEDFUSION SYRINGE INFUSION PUMP Model 2001) to the indwelling catheter.
The solvent (vehicle) was administered intravenously to the Vehicle-Control group. To the Compound 7-20 mg/kg, −30 mg/kg, and −50 mg/kg groups, Compound 7 dissolved in the vehicle was administered intravenously at a dose of 20 mg/kg, 30 mg/kg, and 50 mg/kg, respectively. For all groups, the administration volume was 5 mL/kg and the administration speed was 5 mL/kg/minute. The composition of the vehicle used was 5% dimethyl sulfoxide (Wako Pure Chemical Industries, Ltd.), 25% propylene glycol (Kanto Chemical Co., Inc.)/20% ethanol (Junsei Chemical Co., Ltd.)/15% hydroxypropyl-β-cyclodextrin (Nihon Shokuhin Kako Co., Ltd)/300 mM glycine (Wako Pure Chemical Industries, Ltd.)/192 mM sodium hydroxide (Wako Pure Chemical Industries, Ltd.)/physiological saline solution (Otsuka Pharmaceutical Factory, Inc.). Rats were euthanized under anesthesia the day after final administration by collecting blood from the abdominal aorta, and then autopsy was performed to collect the lumbar spine, lower leg bone, and mandible. The lumbar spine, lower leg bone, and mandible were stored in 70% ethanol. The bone mineral densities of the lumbar spine (second to fourth lumbar vertebrae), lower leg bone, and mandible were determined using a dual X-ray bone mineral scanner (DCS-600EX, Aloka).
The data are shown as mean value+standard error (SE). SAS preclinical package ver. 5.00 (SAS Institute Japan) was used to perform the following statistical analyses. The significance level was set to 5% on both sides. With regard to the lumbar spine, lower leg bone, and mandible bone mineral density, parametric Dunnett multiple comparison (*P<0.05) was performed for the three dosage groups of Compound 7 with the Vehicle-Control group as control.

Cc1cc(N2C(=O)NC(=O)C2(C)C)cc(C)c1CCS(=O)(=O)N1CCC2(CC1)N=C(c1ccc(OC(F)(F)F)cc1)NC2=O [Compound 7, 1-(3,5-dimethyl-4-(2-((4-oxo-2-(4-(trifluoromethoxy)phenyl)-1,3,8-triazaspiro[4.5]deca-1-en-8-yl)sulfonyl)ethyl)phenyl)-5,5-dimethylimidazolidine-2,4-dione]
percentage of increase in the lumbar spine bone mineral density with respect to the Vehicle-Control group (20 mg/kg): 16%
percentage of increase of bone mineral density in the lower leg bone with respect to the Vehicle-Control group (20 mg/kg): 7%
percentage of increase in the lumbar spine bone mineral density with respect to the Vehicle-Control group (30 mg/kg): 21%
percentage of increase of bone mineral density in the lower leg bone with respect to the Vehicle-Control group (30 mg/kg): 16%
percentage of increase of mandible bone mineral density relative to the Vehicle-Control group (30 mg/kg): 7%
percentage of increase in the lumbar spine bone mineral density with respect to the Vehicle-Control group (50 mg/kg): 25%
percentage of increase of bone mineral density in the lower leg bone with respect to the Vehicle-Control group (50 mg/kg): 19%
